“And” between values parts separate entries of the source, which are not always exact repeats. Equal values may be shown once.
Columns and labels:
[1] = system: S. Typhimurium SL1344 or 14028 in HeLa cells; assay: CFU assay in infected HeLa cells; format: cell-based
Method: FIG. 1A-D. D66 is a small molecule that prevents S. Typhimurium replication and/or survival in macrophages. A). Structure of D66. B) RAW264.7 macrophage-like cells were infected with S. Typhimurium harboring a chromosomal sifB: : gfp reporter, treated with DMSO or D66 at two hours after infection, and monitored for bacterial accumulation (GFP+Macrophage Area) over 16 hours using the SAFIRE (Screen for Anti-infectives using Fluorescence microscopy of Intracellular Enterobacteriaceae) assay. The IC50 value is indicated. Mean and SD of biological duplicates with technical duplicates across 9 dilutions of D66. C, D) CFU assays were performed with RAW264.7 or HeLa cells infected with S. Typhimurium SL1344 or 14028 for two hours and treated for 16 hours with DMSO or 1.5-fold dilutions of D66, prior to lysis and plating for CFU. Symbols on the Y-axes are the CFU value from DMSO-treated samples. The IC50 values are indicated. Mean and SEMs of biological triplicates with technical duplicates across 8 dilutions of D66.
CFU assays were performed with RAW 264.7 cells seeded as above or with Hela cells (ATCC CCL-2) seeded at 1x10^4 cells per 96-well. Cells were infected as described above with either S. Typhimurium SL1344 or 14028, as indicated at an approximate MOI of 30 bacteria per RAW 264.7 cell and 150 bacteria per HeLa cell. Plates were centrifuged and gentamicin treated as above. […]

[2] = system: S. aureus FDA209; assay: Membrane permeability by PI fluorescence; format: cell-based; settings: mid-log S. aureus FDA209
Method: (§1) Mid-log phase S. aureus FDA209 cells were used for all experiments. A) Membrane fluidity was evaluated with a Laurdan generalized polarization (GP) assay. Cells were exposed at time 0 to DMSO, benzyl alcohol (BnOH, a membrane fluidizer [50 mM]), or D66 (1x MIC95=130 μM). Mean and SEM of three biological replicates performed with technical triplicates. B) Membrane permeability was monitored by PI fluorescence. Cells were exposed at time 0 to DMSO, SDS [0.3%], or D66. Samples were processed at the timepoints shown. Mean and SEM of three biological replicates performed with technical triplicates. C) Intracellular pH was monitored with the fluorescent probe BCECF-AM. Cells were exposed at time 0 to DMSO, the protonophore CCCP [100 μM], or D66. Mean and SEM of three biological replicates performed with technical triplicates. D) Intracellular ATP levels measured using the Promega BacTiter-Glo kit after 30 minutes of treatment with DMSO, chloramphenicol (Chlor), or D66. Mean and SEM of three biological replicates performed with technical triplicates. E) Respiration rates of cells incubated with resazurin and treated at time 0 as indicated. Mean and […]

[3] = Murine tolerability after a single dose; format: in vivo, C57BL/6 mice; settings: mice
Method: Murine pharmacokinetic analyses and infections: Three female C57BL/6 mice were injected intraperitoneally (IP) with 50 mg/kg of D66 formulated in DMSO (50 μL). […] Three mice were initially dosed and observed for 24 hours to determine tolerability. […] Plasma D66 levels were measured using a liquid chromatography coupled to tandem mass spectrometry (LC/MS/MS) assay by the University of Colorado Cancer Center Drug Discovery and Development Shared Resource. The assay used monitored the transition of D66 (376 m/z->176 m/z) and was linear from 1-1000 ng/ml with an accuracy and precision of 90.3%+10.4% (% CV) based on quality control (QC) samples included with analyzed unknown samples.

[4] = system: staphylococcal strains; assay: MIC95 quoted for staphylococcal persister and biofilm experiments; format: cell-based; settings: staphylococcal strains; read-out: MIC95
Method: A-D) Overnight cultures of the indicated strains were treated at time 0 with DMSO, ciprofloxacin [4 μg/mL], vancomycin [10 μg/mL], or the corresponding MIC95 concentration of D66 (1x MIC95=130 μM, 49 μg/mL). Cultures were plated for enumeration of CFU at time points indicated. Mean and SEM of three biological replicates. E) RAW 264.7 macrophage-like cells and HeLa cells were infected with S. aureus USA300, at MOIs of 0.5 and 2.5, respectively. Cells were treated two hours after infection with DMSO (gray circle on Y axis), or dilutions of D66 from 40 μM. After 8 hours of infection, cells were lysed and plated for enumeration of CFU. Mean and SEM of biological duplicates performed with technical triplicates each with six dilutions of D66. The IC50 value that was calculatable is indicated.
Biofilm formation was monitored after 18 hours in TSB with subinhibitory concentrations of DMSO, rifampin (1x MIC95=0.05 μg/mL), vancomycin (1x MIC95=1 μg/mL), or D66 (1x MIC95=130 μM). A-D) Crystal violet staining for accumulated biofilm mass measured at A595. Mean and […]

[5] = system: 5-day-old staphylococcal biofilms; assay: 5-day-old staphylococcal biofilms; format: cell-based; settings: biofilms established 5 days in TSB, treated 18 hours, crystal violet
Method: (A-D). For the indicated strain, biofilms established in TSB for 5-days were treated for 18 hours with DMSO, rifampin (1x MIC95=0.05 μg/mL), vancomycin (1x MIC95=1 μg/mL), or D66 (Table 1). The remaining biofilm extracellular matrix was stained with crystal violet and the A595 was measured. Mean and SEM of three biological replicates performed with technical triplicates are shown. Asterisks indicate P≤0.05 as determined by one-way ANOVA compared to DMSO.

[6] = system: S. aureus FDA209; assay: Laurdan generalized polarization membrane fluidity assay; format: cell-based; settings: mid-log S. aureus FDA209
Method: as §1

SMILES: O=C(Nc1cc(Cl)cc(Cl)c1)N1CCCN(Cc2ccccc2)CC1 [D66]
- ability to reduce bacterial load in Hela cells [1]: little effect
- reduction in CFU [1]: 5-10 fold
- cell membrane rupture (PI permeability) [2]: does not rupture the cell membrane
- observable toxicity and gross pathological lesions in liver, kidney, and gastrointestinal tissues ([3]; 50 mg/kg IP, observed for 24 hours): lack of observable toxicity and gross pathological lesions
- adverse effects (hunching, tachypnea, or abnormal ambulation) ([3]; single intraperitoneal dose of 50 mg/kg, after 24 hours): No adverse effects
- MIC [4]: 130 µM and 49 µg/mL
- reduction of 5-day-old biofilms [5]: minimally effective
- membrane fluidity [6]: rapidly increases membrane fluidity
